Values quoted from earlier work in patent US20250339386A1, “VITAMIN K2 FOR USE IN TREATMENT OF CORONARY ARTERY CALCIFICATION” (Region Syddanmark, priority 2022, published 2025).

Key:
[1] = test system: human monocyte-derived macrophages; settings: cells pretreated; dose response relationship
CAC progression = settings: asymptomatic older men and women 60-80 years, with recommended calcium and vitamin D
[2] = test system: aortic valve calcification; settings: high-dose supplementation; male subjects with aortic valve calcification score above 300 arbitrary units

CC(C)=CCC/C(C)=C/CC/C(C)=C/CC/C(C)=C/CC/C(C)=C/CC/C(C)=C/CC/C(C)=C/CC1=C(C)C(=O)c2ccccc2C1=O [menaquinone-7]
Cytokine release (TNF-α, IL-1α, IL-1β) [1]: inhibition of cytokine release

CC1=C(C/C=C(\C)CCC[C@H](C)CCC[C@H](C)CCCC(C)C)C(=O)c2ccccc2C1=O [vitamin K1, phylloquinone]
Progression of existing CAC (CAC progression): reduced the progression of existing CAC

Menaquinone [vitamin K2]
Aortic valve calcification progression [2]: non-significantly decreased
